This note sets out measurements from US20220162191A1, “SMALL MOLECULE MODULATORS OF IL-17” (LEO PHARMA A/S, priority 2019, published 2022).

For this test, the target named is T1, human IL-17AA (Homo sapiens, UniProt Q16552).
T1 construct: host or cells: HEK (human embryonic kidney) cells
T1 sequence (Q16552 24-155) 1: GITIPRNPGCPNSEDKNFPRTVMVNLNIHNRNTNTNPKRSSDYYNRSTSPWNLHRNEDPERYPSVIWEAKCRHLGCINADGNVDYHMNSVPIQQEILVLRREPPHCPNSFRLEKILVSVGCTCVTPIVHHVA
T1 sequence (Q16552 24-155) 2: T1 sequence (Q16552 24-155) 1
Briefly: IL-8 release assay in human epithelial keratinocytes adult (HEKa). The test is classed as cell-based. Particulars: 3 ng/ml human IL-17AA + 10 ng/ml human TNFalpha, 68-72 h, IL-8 by HTRF, read-out: Rel EC50 L-8 release assay. In outline:
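Adult human keratinocytes in Epilife with HKGS minus hydrocortisone, treated with compound then stimulated with final 3 ng/ml HEK-derived human IL-17AA plus 10 ng/ml TNF-alpha for 68–72 h at 37 °C; TNF-alpha alone defines 100% inhibition. Secreted IL-8 by HTRF; relative IC50 and Emax from four-parameter fits.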
For orientation: Time-resolved FRET reads energy transfer from a long-lived donor to a nearby acceptor.
As to `Cn1cnnc1-c1ccc(NC(=O)C(Cc2cc(-c3ccc(O)c(C(=O)N4CCNCC4)c3)ccc2Cl)NC(=O)c2ccnn2C)cc1` (centres unmarked) [Example 173, N-[1-[[2-chloro-5-[4-hydroxy-3-(piperazine-1-carbonyl)phenyl]phenyl]methyl]-2-[4-(4-methyl-1,2,4-triazol-3-yl)anilino]-2-oxo-ethyl]-2-methyl-pyrazole-3-carboxamide], the EC50 is above 1000 nM.
In the case of `Cc1n[nH]c(C)c1-c1ccc(NC(=O)[C@@H](NC(=O)c2ccnn2C)[C@@H]2CCc3ccc(-c4ccc5c(c4)CCN(C)C5)cc32)cc1` [Example 15, N-[(1S)-2-[4-(3,5-dimethyl-1H-pyrazol-4-yl)anilino]-1-[(1R)-6-(2-methyl-3,4-dihydro-1H-isoquinolin-6-yl)indan-1-yl]-2-oxo-ethyl]-2-methyl-pyrazole-3-carboxamide], the EC50 was below 100 nM.
`Cn1cncc1-c1ccc(NC(=O)[C@H](Cc2cc(-c3ccnc(C(O)C4CC4)c3)ccc2Cl)NC(=O)c2ccnn2C)cc1` (stereo partly drawn) [Example 140, N-[(1S)-1-[[2-chloro-5-[2-[cyclopropyl(hydroxy)methyl]-4-pyridyl]phenyl]methyl]-2-[4-(3-methylimidazol-4-yl)anilino]-2-oxo-ethyl]-2-methyl-pyrazole-3-carboxamide]: the EC50 lay in the range of 100 to 1000 nM.
Consider `Cn1cncc1-c1ccc(NC(=O)C(Cc2cc(-c3ccnc(OC4CCC4)c3)ccc2Cl)NC(=O)c2ccnn2C)cc1` (centres unmarked) [Example 158, N-[1-[[2-chloro-5-[2-(cyclobutoxy)-4-pyridyl]phenyl]methyl]-2-[4-(3-methylimidazol-4-yl)anilino]-2-oxo-ethyl]-2-methyl-pyrazole-3-carboxamide], for which the EC50 lay within 100 to 1000 nM.
Regarding `CC(C)n1cc(-c2ccc3c(c2)[C@H]([C@H](NC(=O)OC2CC2)C(=O)Nc2ccc(-c4cncn4C)c(O)c2)CCC3)ccc1=O` [Example 31, cyclopropyl N-[(1S)-2-[3-hydroxy-4-(3-methylimidazol-4-yl)anilino]-1-[(1R)-7-(1-isopropyl-6-oxo-3-pyridyl)tetralin-1-yl]-2-oxo-ethyl]carbamate], the EC50 was below 100 nM.
In the case of `CC(C)n1cc(-c2ccc(Cl)c(C[C@H](NC(=O)CC3CC3)C(=O)Nc3ccc(-c4nncn4C)cc3)c2)ccc1=O` [Example 116, (2S)-3-[2-chloro-5-(1-isopropyl-6-oxo-3-pyridyl)phenyl]-2-[(2-cyclopropylacetyl)amino]-N-[4-(4-methyl-1,2,4-triazol-3-yl)phenyl]propanamide], the concentration giving a half-maximal response (EC50) was above 1000 nM.
As for `Cc1[nH]ncc1-c1ccc(NC(=O)C(Cc2cc(-c3ccc(=O)n(C(C)C)c3)ccc2Cl)NC(=O)OC(C)(C)C)cc1` (centres unmarked) [Example 90, tert-butyl N-[1-[[2-chloro-5-(1-isopropyl-6-oxo-3-pyridyl)phenyl]methyl]-2-[4-(5-methyl-1H-pyrazol-4-yl)anilino]-2-oxo-ethyl]carbamate], the EC50 lay within 100 to 1000 nM.
For `Cc1n[nH]c(C)c1-c1ccc(NC(=O)[C@@H](NC(=O)C2(F)CC2)[C@@H]2CCCc3ccc(-c4ccnc(N5C[C@@H]6C[C@H]5CO6)c4)cc32)cc1` [Example 29, N-[(1S)-2-[4-(3,5-dimethyl-1H-pyrazol-4-yl)anilino]-1-[(1R)-7-[2-[(1S,4S)-2-oxa-5-azabicyclo[2.2.1]heptan-5-yl]-4-pyridyl]tetralin-1-yl]-2-oxo-ethyl]-1-fluoro-cyclopropanecarboxamide], the EC50 was below 100 nM.
For `Cn1cncc1-c1ccc(NC(=O)C(Cc2cc(-c3ccnc(OC(F)F)c3)ccc2Cl)NC(=O)c2ccnn2C)cc1` (centres unmarked) [Example 161, N-[1-[[2-chloro-5-[2-(difluoromethoxy)-4-pyridyl]phenyl]methyl]-2-[4-(3-methylimidazol-4-yl)anilino]-2-oxo-ethyl]-2-methyl-pyrazole-3-carboxamide], the EC50 fell in the range of 100 to 1000 nM.
Consider `CC(C)n1cc(-c2ccc(Cl)c(C[C@H](NC(=O)C3(F)CC3)C(=O)Nc3ccc(-c4cncn4C)c(O)c3)c2)ccc1=O` [Example 133, N-[(1S)-1-[[2-chloro-5-(1-isopropyl-6-oxo-3-pyridyl)phenyl]methyl]-2-[3-hydroxy-4-(3-methylimidazol-4-yl)anilino]-2-oxo-ethyl]-1-fluoro-cyclopropanecarboxamide], for which the EC50 was in the range of 100 to 1000 nM.
In the case of “N-[1-[[2-chloro-5-(1-(l-6-oxo-3- pyridyl)phenyl]methyl]-2-[4-(3-chloro- 1H-pyrazol-4-yl)anilino]-2-oxo-ethyl]-2- methyl-pyrazole-3-carboxamide [Example 180]”, the EC50 was 100 to 1000 nM.
In the case of `Cc1ncn(C)c1-c1ccc(NC(=O)[C@@H](NC(=O)C2(F)CC2)[C@@H]2CCCc3ccc(-c4ccc5c(c4)CNC5)cc32)cc1` [Example 43, N-[(1S)-2-[4-(3,5-dimethylimidazol-4-yl)anilino]-1-[(1R)-7-isoindolin-5-yltetralin-1-yl]-2-oxo-ethyl]-1-fluoro-cyclopropanecarboxamide] it was 100 to 1000 nM; in that of `Cc1n[nH]c(C)c1-c1ccc(NC(=O)[C@@H](NC(=O)C2(F)CC2)[C@@H]2CCCc3ccc(-c4ccc(=O)n(C(C)C)c4)cc32)cc1O` [Example 47, N-[(1S)-2-[4-(3,5-dimethyl-1H-pyrazol-4-yl)-3-hydroxy-anilino]-1-[(1R)-7-(1-isopropyl-6-oxo-3-pyridyl)tetralin-1-yl]-2-oxo-ethyl]-1-fluoro-cyclopropanecarboxamide], below 100 nM.
For the compound `Cc1cnn(C)c1-c1ccc(NC(=O)[C@@H](NC(=O)C2(F)CC2)[C@H](C)c2cccc(-c3cc(N4C[C@@H]5C[C@H]4CO5)ncn3)c2)cc1` [Example 342, N-[(1S,2R)-1-[[4-(2,4-dimethylpyrazol-3-yl)phenyl]carbamoyl]-2-[3-[6-[(1S,4S)-2-oxa-5-azabicyclo[2.2.1]heptan-5-yl]pyrimidin-4-yl]phenyl]propyl]-1-fluoro-cyclopropanecarboxamide], the EC50 is above 1000 nM.
With `Cc1nocc1-c1ccc(NC(=O)C(Cc2cc(-c3ccc(=O)n(C(C)C)c3)ccc2Cl)NC(=O)c2ccnn2C)cc1` (centres unmarked) [Example 78, N-[1-[[2-chloro-5-(1-isopropyl-6-oxo-3-pyridyl)phenyl]methyl]-2-[4-(3-methylisoxazol-4-yl)anilino]-2-oxo-ethyl]-2-methyl-pyrazole-3-carboxamide], the EC50 is 100 to 1000 nM.
Take `CC(C)n1cc(-c2ccc(Cl)c(C[C@H](NC(=O)OC(C)(C)C)C(=O)Nc3ccc(-c4cncn4C)c(F)c3)c2)ccc1=O` [Example 134, tert-butyl N-[(1S)-1-[[2-chloro-5-(1-isopropyl-6-oxo-3-pyridyl)phenyl]methyl]-2-[3-fluoro-4-(3-methylimidazol-4-yl)anilino]-2-oxo-ethyl]carbamate]: the EC50 lay in the range of 100 to 1000 nM.
In the case of `Cc1n[nH]c(C)c1-c1ccc(NC(=O)[C@@H](NC(=O)C2(F)CC2)[C@@H]2CCCc3ccc(-c4cc(N5C[C@@H]6C[C@H]5CO6)ncn4)cc32)cc1` [Example 397, N-[(1S)-2-[4-(3,5-dimethyl-1H-pyrazol-4-yl)anilino]-1-[(1R)-7-[6-[(1S,4S)-2-oxa-5-azabicyclo[2.2.1]heptan-5-yl]pyrimidin-4-yl]tetralin-1-yl]-2-oxo-ethyl]-1-fluoro-cyclopropanecarboxamide] it was below 100 nM; in that of `Cn1cncc1-c1ccc(NC(=O)C(Cc2cc(-c3ccnc(N4CC[C@H](CO)C4)c3)ccc2Cl)NC(=O)c2ccnn2C)cc1` (stereo partly drawn) [Example 185, N-[1-[[2-chloro-5-[2-[(3S)-3-(hydroxymethyl)pyrrolidin-1-yl]-4-pyridyl]phenyl]methyl]-2-[4-(3-methylimidazol-4-yl)anilino]-2-oxo-ethyl]-2-methyl-pyrazole-3-carboxamide], 100 to 1000 nM.
In the case of `Cc1n[nH]c(C)c1-c1ccc(NC(=O)[C@@H](NC(=O)C2(F)CC2)[C@@H]2CCCc3ccc(-c4cnn(C5CCOCC5)c4)cc32)cc1` [Example 396, N-[(1S)-2-[4-(3,5-dimethyl-1H-pyrazol-4-yl)anilino]-2-oxo-1-[(1R)-7-(1-tetrahydropyran-4-ylpyrazol-4-yl)tetralin-1-yl]ethyl]-1-fluoro-cyclopropanecarboxamide], the EC50 was below 100 nM.
For the compound `Cc1cnn(C)c1-c1ccc(NC(=O)[C@H](Cc2cc(-c3ccc(=O)n(C(C)C)c3)ccc2Cl)NC(=O)C(C)C2CC2)cc1` (stereo partly drawn) [Example 332, (2S)-3-[2-chloro-5-(1-isopropyl-6-oxo-3-pyridyl)phenyl]-2-(2-cyclopropylpropanoylamino)-[4-(2,4-dimethylpyrazol-3-yl)phenyl]propanamide], the EC50 is above 1000 nM.

Usually EC50 stands for the midpoint of the concentration-response curve.
